From ChEMBL document CHEMBL1165927, “Insulinomimetic activity of two new gallotannins from the fruits of Capparis moonii” (2010)
The source made the active and inactive calls. The calls are words filed in the database; no cut-off is given here.

How the values were obtained:
L6 [1] = assay: Inhibition of glucose uptake in rat L6 myocyte at 50 uM after 24 hrs; format: functional; details: L6, 24 h, values are per cent of control
L6 [2] = assay: Increase in GLUT4 mRNA expression in rat L6 cells at 50 uM by RT-PCR; format: functional, cell-based
[3] = biological target: T1, Insulin receptor substrate 1 (Rattus norvegicus) (UniProt P35570); assay: […] in rat L6 cells after 24 hrs by immunoprecipitation; format: cell-based
T1 sequence (whole entry): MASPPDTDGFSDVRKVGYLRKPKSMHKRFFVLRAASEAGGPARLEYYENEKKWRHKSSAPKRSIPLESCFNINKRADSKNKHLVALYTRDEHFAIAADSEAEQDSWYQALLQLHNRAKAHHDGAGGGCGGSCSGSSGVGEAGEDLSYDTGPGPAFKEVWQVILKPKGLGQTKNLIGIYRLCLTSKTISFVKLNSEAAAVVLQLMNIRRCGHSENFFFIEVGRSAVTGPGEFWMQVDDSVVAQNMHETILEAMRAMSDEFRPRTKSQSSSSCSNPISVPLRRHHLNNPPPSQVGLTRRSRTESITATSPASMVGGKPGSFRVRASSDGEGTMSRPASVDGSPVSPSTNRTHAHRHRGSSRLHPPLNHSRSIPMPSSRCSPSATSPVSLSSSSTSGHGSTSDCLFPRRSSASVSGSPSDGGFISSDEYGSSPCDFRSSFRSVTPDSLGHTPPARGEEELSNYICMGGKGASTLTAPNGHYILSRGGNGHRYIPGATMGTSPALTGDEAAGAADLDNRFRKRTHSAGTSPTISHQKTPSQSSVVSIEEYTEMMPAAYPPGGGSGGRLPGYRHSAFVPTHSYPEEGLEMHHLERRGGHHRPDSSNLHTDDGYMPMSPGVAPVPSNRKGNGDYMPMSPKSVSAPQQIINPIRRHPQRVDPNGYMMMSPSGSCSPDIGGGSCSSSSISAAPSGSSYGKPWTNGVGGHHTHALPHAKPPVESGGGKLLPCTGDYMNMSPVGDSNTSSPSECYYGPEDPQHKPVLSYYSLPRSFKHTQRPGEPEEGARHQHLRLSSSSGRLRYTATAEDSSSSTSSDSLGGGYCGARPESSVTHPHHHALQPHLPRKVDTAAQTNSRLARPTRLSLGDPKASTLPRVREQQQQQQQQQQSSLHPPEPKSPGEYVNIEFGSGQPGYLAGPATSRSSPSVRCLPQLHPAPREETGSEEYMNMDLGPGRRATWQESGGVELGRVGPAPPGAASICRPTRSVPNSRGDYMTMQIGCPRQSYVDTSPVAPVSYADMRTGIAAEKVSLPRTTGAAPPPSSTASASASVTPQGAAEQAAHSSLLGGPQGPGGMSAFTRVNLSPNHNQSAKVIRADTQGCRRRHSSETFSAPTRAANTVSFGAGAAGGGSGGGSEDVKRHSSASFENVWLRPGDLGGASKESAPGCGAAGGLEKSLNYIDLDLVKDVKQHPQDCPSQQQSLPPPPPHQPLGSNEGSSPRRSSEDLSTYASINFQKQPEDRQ

L6 [4] = assay: Inhibition of glucose uptake in rat L6 myocyte at 10 ng/ml after 24 hrs; format: functional, cell-based
[5] = biological target: Insulin receptor (Rattus norvegicus) (UniProt P15127); assay: […] in rat L6 cells after 24 hrs by immunoprecipitation; format: cell-based
Sequence of Insulin receptor (Rattus norvegicus) (P15127 27-759 limits assumed): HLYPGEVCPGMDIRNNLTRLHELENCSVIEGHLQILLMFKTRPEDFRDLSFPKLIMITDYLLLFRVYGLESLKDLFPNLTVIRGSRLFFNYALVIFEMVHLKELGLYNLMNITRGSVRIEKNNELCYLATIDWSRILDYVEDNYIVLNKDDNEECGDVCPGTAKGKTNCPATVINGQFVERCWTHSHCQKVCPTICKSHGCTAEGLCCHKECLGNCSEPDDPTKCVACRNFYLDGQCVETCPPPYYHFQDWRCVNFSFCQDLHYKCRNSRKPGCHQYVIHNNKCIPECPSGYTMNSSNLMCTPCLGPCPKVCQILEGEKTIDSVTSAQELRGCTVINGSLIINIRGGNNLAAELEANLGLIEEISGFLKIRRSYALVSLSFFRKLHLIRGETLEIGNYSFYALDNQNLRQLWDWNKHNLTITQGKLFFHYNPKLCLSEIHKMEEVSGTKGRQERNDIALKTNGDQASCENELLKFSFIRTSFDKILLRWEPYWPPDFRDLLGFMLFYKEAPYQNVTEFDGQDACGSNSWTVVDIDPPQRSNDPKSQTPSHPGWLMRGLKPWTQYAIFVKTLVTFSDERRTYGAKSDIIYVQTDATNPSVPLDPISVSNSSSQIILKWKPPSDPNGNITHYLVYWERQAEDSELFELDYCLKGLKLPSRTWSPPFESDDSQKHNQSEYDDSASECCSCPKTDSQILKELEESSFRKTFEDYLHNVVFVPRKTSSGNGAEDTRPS
Sequence of Insulin receptor (Rattus norvegicus) (P15127 764-1383 limits assumed): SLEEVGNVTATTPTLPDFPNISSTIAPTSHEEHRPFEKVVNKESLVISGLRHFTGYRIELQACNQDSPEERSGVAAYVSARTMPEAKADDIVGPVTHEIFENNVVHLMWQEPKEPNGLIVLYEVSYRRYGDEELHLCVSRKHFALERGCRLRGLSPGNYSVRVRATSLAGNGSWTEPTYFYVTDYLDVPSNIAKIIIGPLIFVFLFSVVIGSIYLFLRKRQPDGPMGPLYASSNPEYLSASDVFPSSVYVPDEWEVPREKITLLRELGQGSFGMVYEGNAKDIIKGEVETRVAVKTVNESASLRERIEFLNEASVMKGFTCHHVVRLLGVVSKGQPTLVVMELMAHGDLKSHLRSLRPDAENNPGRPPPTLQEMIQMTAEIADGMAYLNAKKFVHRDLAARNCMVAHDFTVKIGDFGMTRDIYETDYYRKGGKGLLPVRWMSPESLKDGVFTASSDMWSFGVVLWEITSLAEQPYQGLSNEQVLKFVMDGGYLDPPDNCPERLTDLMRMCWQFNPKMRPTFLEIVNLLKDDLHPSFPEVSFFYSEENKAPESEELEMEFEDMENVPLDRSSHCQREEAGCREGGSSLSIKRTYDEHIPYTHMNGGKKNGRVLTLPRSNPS

L6 [6] = assay: Increase in PI3K mRNA expression in rat L6 cells at 10 ng/ml by RT-PCR; format: functional, cell-based
L6 [7] = assay: Increase in PI3K mRNA expression in rat L6 cells at 100 ng/ml by RT-PCR; format: functional, cell-based

| SMILES | residual activity at 50 µM (L6 [1]) [%] | Activity (L6 [2]) | inhibition [3] | inhibition (L6 [4]) | inhibition [5] | Activity (L6 [6]) | Activity (L6 [7]) |
| --- | --- | --- | --- | --- | --- | --- | --- |
| CN(CCOc1ccc(CC2SC(=O)NC2=O)cc1)c1ccccn1 (stereo unspecified) [ROSIGLITAZONE] | 240 | – | – | – | – | – | – |
| O=C(O)CC(C(=O)O)C1c2c(C(=O)O[C@H]3[C@H](OC(=O)c4cc(O)c(O)c(O)c4)O[C@H](COC(=O)c4cc(O)c(O)c(O)c4)[C@@H](O)[C@H]3OC(=O)c3cc(O)c(O)c(O)c3)cc(O)c(O)c2OC(=O)C1O (stereo partly specified) | – | Active | Active | Dose-dependent effect | Active | Active | – |
| COC(=O)CC(C(=O)O)C1c2c(C(=O)O[C@H]3[C@H](OC(=O)c4cc(O)c(O)c(O)c4)O[C@H](COC(=O)c4cc(O)c(O)c(O)c4)[C@@H](O)[C@H]3OC(=O)c3cc(O)c(O)c(O)c3)cc(O)c(O)c2OC(=O)C1O (stereo partly specified) | – | Active | Active | Dose-dependent effect | Active | – | Active |
